{"source": "patent US12534457B2", "about": "“Heteroaryl derivative compounds, and uses thereof” (Voronoi Inc., priority 2021, dated 2026)"}
{"system": "Ba/F3 cells expressing EGFR Del19/C797S (EGFR DC)", "assay": "Proliferation inhibitory activity, Ba/F3 cells expressing EGFR Del19/C797S (CellTiter-Glo)", "assay_type": "cell-based", "settings": "Mus musculus, BaF3, 72 hours of compound treatment", "outline": "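Viability after 72 h of compound exposure was measured by luminescence (CellTiter-Glo) in Ba/F3 lines transduced with mutant EGFR. Final concentrations spanned 0.2 nM–5 μM over 12 threefold steps. Growth relative to untreated control gave GI50 values; each test was run three times.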", "units": {"GI50": "nM"}}
{"smiles": "COc1cc(N2CCC(N3CCN(C)CC3)CC2)c(C(C)=O)cc1Nc1cc(N2OCC[C@@H]2c2cccc(F)c2F)ncn1", "note": "[Example 145, (R)-1-(5-((6-(3-(2,3-difluorophenyl)isoxazolidin-2-yl)pyrimidin-4-yl)amino)-4-methoxy-2-(4-(4-methylpiperazin-1-yl)piperidin-1-yl)phenyl)ethan-1-one]", "GI50": "< 50"}
{"smiles": "CO/N=C(\\C)c1cc(Nc2cc(N3OCC[C@@H]3c3cccc(F)c3F)ncn2)c(OC)cc1N1CCC(N2CCN(C)CC2)CC1", "note": "[Example 146, (R,E)-1-(5-((6-(3-(2,3-difluorophenyl)isoxazolidin-2-yl)pyrimidin-4-yl)amino)-4-methoxy-2-(4-(4-methylpiperazin-1-yl)piperidin-1-yl)phenyl)ethan-1-one O-methyl oxime]", "GI50": "< 50"}
{"smiles": "COc1nc(N2CCC(N3CCN(C)CC3)CC2)c(-c2cnn(C)c2)cc1Nc1cc(N2OCC[C@@H]2c2ccccc2)ncn1", "note": "[Example 147, (R)—N-(2-methoxy-5-(1-methyl-1H-pyrazol-4-yl)-6-(4-(4-methylpiperazin-1-yl)piperidin-1-yl)pyridin-3-yl)-6-(3-phenylisoxazolidin-2-yl)pyrimidin-4-amine]", "GI50": "< 50"}
{"smiles": "COc1cc2c(cc1Nc1cc(N3OCC[C@@H]3c3cc(F)cc(F)c3)ncn1)N(C(=O)C(F)(F)F)CC21CCN(C)CC1", "note": "[Example 152, (R)-1-(6-((6-(3-(3,5-difluorophenyl)isoxazolidin-2-yl)pyrimidin-4-yl)amino)-5-methoxy-1′-methylspiro[indolin-3,4′-piperidin]-1-yl)-2,2,2-trifluoroethan-1-one]", "GI50": "< 50"}
{"smiles": "COc1cc2c(cc1Nc1cc(N3OCC[C@@H]3c3cc(F)cc(F)c3)ncn1)NCC21CCN(C)CC1", "note": "[Example 154, (R)—N-(6-(3-(3,5-difluorophenyl)isoxazolidin-2-yl)pyrimidin-4-yl)-5-methoxy-1′-methylspiro[indolin-3,4′-piperidin]-6-amine]", "GI50": "< 50"}
{"smiles": "CN1CCC(c2ccc(Nc3cc(N4OCC[C@@H]4c4cc(F)cc(F)c4)ncn3)c3c2CCO3)CC1", "note": "[Example 155, (R)-6-(3-(3,5-difluorophenyl)isoxazolidin-2-yl)-N-(4-(1-methylpiperidin-4-yl)-2,3-dihydrobenzofuran-7-yl)pyrimidin-4-amine]", "GI50": "< 50"}
{"smiles": "Fc1cc(F)cc([C@H]2CCON2c2cc(Nc3ccc(C4CCNCC4)c4c3OCC4)ncn2)c1", "note": "[Example 157, (R)-6-(3-(3,5-difluorophenyl)isoxazolidin-2-yl)-N-(4-(piperidin-4-yl)-2,3-dihydrobenzofuran-7-yl)pyrimidin-4-amine]", "GI50": "< 50"}
{"smiles": "Fc1cc(F)cc([C@H]2CCON2c2cc(Nc3cccc4c3OCC4)ncn2)c1", "note": "[Example 159, (R)-6-(3-(3,5-difluorophenyl)isoxazolidin-2-yl)-N-(2,3-dihydrobenzofuran-7-yl)pyrimidin-4-amine]", "GI50": "50 to 500"}
{"smiles": "CN1CCC(n2cc(-c3ccc(Nc4cc(N5OCC[C@@H]5c5cc(F)cc(F)c5)ncn4)c4c3CCO4)cn2)CC1", "note": "[Example 160, (R)-6-(3-(3,5-difluorophenyl)isoxazolidin-2-yl)-N-(4-(1-(1-methylpiperidin-4-yl)-1H-pyrazol-4-yl)-2,3-dihydrobenzofuran-7-yl)pyrimidin-4-amine]", "GI50": "50 to 500"}
{"smiles": "CCC(=O)Nc1cc(Nc2cc(N3OCC[C@@H]3c3cc(F)cc(F)c3)ncn2)c(OC)cc1N1CCC(N2CCN(C3CC3)CC2)CC1", "note": "[Example 161, (R)—N-(2-(4-(4-cyclopropylpiperazin-1-yl)piperidin-1-yl)-5-((6-(3-(3,5-difluorophenyl)isoxazolidin-2-yl)pyrimidin-4-yl)amino)-4-methoxyphenyl)propionamide]", "GI50": "< 50"}
{"smiles": "CN1CCN(c2c(-c3cnn(C)c3)cc(Nc3cc(N4OCC[C@@H]4c4ccccc4)ncn3)c3c2CCO3)CC1", "note": "[Example 162, (R)—N-(5-(1-methyl-1H-pyrazol-4-yl)-4-(4-methylpiperazin-1-yl)-2,3-dihydrobenzofuran-7-yl)-6-(3-phenylisoxazolidin-2-yl)pyrimidin-4-amine]", "GI50": "< 50"}
{"smiles": "CCC(=O)Nc1cc(Nc2cc(N3OCC[C@@H]3c3cccs3)ncn2)c(OC)cc1N1CCC(N2CCN(C3CC3)CC2)CC1", "note": "[Example 163, (R)—N-(2-(4-(4-cyclopropylpiperazin-1-yl)piperidin-1-yl)-4-methoxy-5-((6-(3-(thiophene-2-yl)isoxazolidin-2-yl)pyrimidin-4-yl)amino)phenyl)propionamide]", "GI50": "< 50"}
{"smiles": "CN1CCN(C2CCN(c3cc(OCC(F)(F)F)c(Nc4cc(N5OCC[C@@H]5c5ccccc5)ncn4)cc3-c3cnn(C)c3)CC2)CC1", "note": "[Example 164, (R)—N-(5-(1-methyl-1H-pyrazol-4-yl)-4-(4-(4-methylpiperazin-1-yl)piperidin-1-yl)-2-(2,2,2-trifluoroethoxy)phenyl)-6-(3-phenylisoxazolidin-2-yl)pyrimidin-4-amine]", "GI50": "< 50"}
{"smiles": "Cn1cc(-c2cc(Nc3cc(N4OCC[C@@H]4c4ccccc4)ncn3)c(OCC(F)(F)F)cc2N2CCC(N3CCOCC3)CC2)cn1", "note": "[Example 165, (R)—N-(5-(1-methyl-1H-pyrazol-4-yl)-4-(4-morpholinopiperidin-1-yl)-2-(2,2,2-trifluoroethoxy)phenyl)-6-(3-phenylisoxazolidin-2-yl)pyrimidin-4-amine]", "GI50": "< 50"}
{"smiles": "CN1CCN(c2cc(OCC(F)(F)F)c(Nc3cc(N4OCC[C@@H]4c4ccccc4)ncn3)cc2-c2cnn(C)c2)CC1", "note": "[Example 166, (R)—N-(5-(1-methyl-1H-pyrazol-4-yl)-4-(4-methylpiperazin-1-yl)-2-(2,2,2-trifluoroethoxy)phenyl)-6-(3-phenylisoxazolidin-2-yl)pyrimidin-4-amine]", "GI50": "< 50"}
{"smiles": "Cn1cc(-c2cc(Nc3cc(N4OCC[C@@H]4c4ccccc4)ncn3)c(OCC(F)(F)F)cc2N2CCOCC2)cn1", "note": "[Example 167, (R)—N-(5-(1-methyl-1H-pyrazol-4-yl)-4-morpholino-2-(2,2,2-trifluoroethoxy)phenyl)-6-(3-phenylisoxazolidin-2-yl)pyrimidin-4-amine]", "GI50": "< 50"}
{"smiles": "COc1cc(N2CCC(N3CCN(C)CC3)CC2)ccc1Nc1cc(N2OCC[C@@H]2c2cncc(F)c2)ncn1", "note": "[Example 169, (R)-6-(3-(5-fluoropyridin-3-yl)isoxazolidin-2-yl)-N-(2-methoxy-4-(4-(4-methylpiperazin-1-yl)piperidin-1-yl)phenyl)pyrimidin-4-amine]", "GI50": "50 to 500"}
{"smiles": "COc1cc(N2CCC(N3CCN(C)CC3)CC2)ccc1Nc1cc(N2OCC[C@@H]2c2cc(F)cc(C#N)c2)ncn1", "note": "[Example 170, (R)-3-fluoro-5-(2-(6-((2-methoxy-4-(4-(4-methylpiperazin-1-yl)piperidin-1-yl)phenyl)amino)pyrimidin-4-yl)isoxazolidin-3-yl)benzonitrile]", "GI50": "50 to 500"}
{"smiles": "Fc1cccc([C@H]2CCON2c2cc(Nc3ccc([C@H]4CCON4)cc3)ncn2)c1F", "note": "[Example 174, 6-((R)-3-(2,3-difluorophenyl)isoxazolidin-2-yl)-N-(4-((R)-isoxazolidin-3-yl)phenyl)pyrimidin-4-amine]", "GI50": "50 to 500"}
{"smiles": "CN1OCC[C@H]1c1ccc(Nc2cc(N3OCC[C@@H]3c3cccc(F)c3F)ncn2)cc1", "note": "[Example 176, 6-((R)-3-(2,3-difluorophenyl)isoxazolidin-2-yl)-N-(4-((S)-2-methylisoxazolidin-3-yl)phenyl)pyrimidin-4-amine]", "GI50": "50 to 500"}
{"smiles": "Fc1cccc([C@H]2CCON2c2cc(Nc3ccc([C@@H]4CCON4)cc3)ncn2)c1F", "note": "[Example 177, 6-((R)-3-(2,3-difluorophenyl)isoxazolidin-2-yl)-N-(4-((S)-isoxazolidin-3-yl)phenyl)pyrimidin-4-amine]", "GI50": "50 to 500"}
{"smiles": "CN1CCN(c2ccc(Nc3cc(N4OCC[C@@H]4c4cncc(Cl)c4)ncn3)cc2)CC1", "note": "[Example 180, (R)-6-(3-(5-chloropyridin-3-yl)isoxazolidin-2-yl)-N-(4-(4-methylpiperazin-1-yl)phenyl)pyrimidin-4-amine]", "GI50": "50 to 500"}
{"smiles": "COc1cc(N2CCC(N3CCN(C)CC3)CC2)ccc1Nc1cc(N2OCC[C@@H]2c2cncc(Cl)c2)ncn1", "note": "[Example 182, (R)-6-(3-(5-chloropyridin-3-yl)isoxazolidin-2-yl)-N-(2-methoxy-4-(4-(4-methylpiperazin-1-yl)piperidin-1-yl)phenyl)pyrimidin-4-amine]", "GI50": "< 50"}
{"smiles": "COc1cc(N2CCC(N3CCN(C)CC3)CC2)ccc1Nc1cc(N2OCC[C@@H]2c2cccc(C(F)F)c2)ncn1", "note": "[Example 184, (R)-6-(3-(3-(difluoromethyl)phenyl)isoxazolidin-2-yl)-N-(2-methoxy-4-(4-(4-methylpiperazin-1-yl)piperidin-1-yl)phenyl)pyrimidin-4-amine]", "GI50": "50 to 500"}
{"smiles": "COc1cc2c(cc1Nc1cc(N3OCC[C@@H]3c3cccc(F)c3F)ncn1)C(=O)N(C)C2", "note": "[Example 193, (R)-6-((6-(3-(2,3-difluorophenyl)isoxazolidin-2-yl)pyrimidin-4-yl)amino)-5-methoxy-2-methylisoindolin-1-one]", "GI50": "50 to 500"}
{"smiles": "COc1cc(N2CCC3(CC2)CCN(C(C)(C)CF)CC3)c(-c2cnn(C)c2)cc1Nc1cc(N2OCC[C@@H]2c2cccc(F)c2F)ncn1", "note": "[Example 195, (R)-6-(3-(2,3-difluorophenyl)isoxazolidin-2-yl)-N-(4-(9-(1-fluoro-2-methylpropan-2-yl)-3,9-diazaspiro[5.5]undecan-3-yl)-2-methoxy-5-(1-methyl-1H-pyrazol-4-yl)phenyl)pyrimidin-4-amine]", "GI50": "< 50"}
{"smiles": "C=Cc1cc(Nc2cc(N3OCC[C@@H]3c3cccc(F)c3F)ncn2)c(OC)cc1N1CCN(C)CC1", "note": "[Example 199, (R)-6-(3-(2,3-difluorophenyl)isoxazolidin-2-yl)-N-(2-methoxy-4-(4-methylpiperazin-1-yl)-5-vinylphenyl)pyrimidin-4-amine]", "GI50": "< 50"}
{"smiles": "C#Cc1cc(Nc2cc(N3OCC[C@@H]3c3cccc(F)c3F)ncn2)c(OC)cc1N1CCN(C)CC1", "note": "[Example 200, (R)-6-(3-(2,3-difluorophenyl)isoxazolidin-2-yl)-N-(5-ethynyl-2-methoxy-4-(4-methylpiperazine-1-yl)phenyl)pyrimidin-4-amine]", "GI50": "< 50"}
